{"source": "patent US10851069B2", "about": "“Compositions of crystallized hydrophobic compounds and methods of making and using same” (Massachusetts Institute of Technology, priority 2016, dated 2020)", "key": {"C57BL/6 mice [1]": {"system": "C57BL/6 mice", "experiment": "PDMS discs loaded with GW2580 crystals implanted SC and IP", "format": "in vivo", "experimental": "Another study was done by mixing GW2580 crystals at different ratios of 1, 5 and 10% w/w with PDMS to form disks of 2.2 mm thickness and 5 mm diameter prepared at ratio 9:1 (PDMS: curing reagent) and were solidified overnight at 45° C. These disks were implanted into SC and IP spaces in C57BL/6 mice and then retrieved and analyzed at 2 weeks, 4 weeks, and 3 months post implantation in C57BL/6 mice (1 disc/site/mouse). […] Retrieved materials where fixed overnight using 4% paraformaldehyde at 4° C. After fixation, alginate sphere or retrieved tissue samples were washed using 70% alcohol. The materials where then mixed with 4 degrees calcium-cooled Histogel (VWR, CA #60872-486). After the molds hardened, the blocks were processed for paraffin embedding, sectioning and staining according to standard histological methods. Single-cell suspensions of freshly excised tissues were prepared using a gentle MACS Dissociator (Miltenyi Biotec, Auburn, Calif.) according to the manufacturer's protocol. Single-cell suspensions were prepared in a passive PEB dissociation buffer (1×PBS, pH 7.2, 0.5% BSA, and 2 mM EDTA) and suspensions were passed through 70 μm filters (Cat. #22363548, Fisher Scientific, Pittsburgh, Pa.). This process removed the majority of cells adhered to the surface (>90%). All tissue and material sample-derived, single-cell populations were then subjected to red blood cell lysis with 5 ml of 1×RBC lysis buffer (Cat. #00-4333, eBioscience, San Diego, Calif., USA) for 5 min at 4° C. The reaction was terminated by the addition of 20 ml of sterile 1×PBS. The cells remaining were centrifuged at 300-400 g at 4° C. and resuspended in a minimal volume (˜50 μl) of eBioscience Staining Buffer (cat. #00-4222) for antibody incubation. All samples were then co-stained in the dark for 25 min at 4° C. with two of the fluorescently tagged monoclonal antibodies specific for the cell markers CD68 (1 μl (0.5 μg) per sample; CD68-Alexa647, Clone FA-11, Cat. #11-5931, BioLegend), Ly-6G (Gr-1) (1 μl (0.5 μg) per sample; Ly-6G-Alexa-647, Clone RB6-8C5, Cat. #108418, BioLegend), CD11b (1 μl (0.2 μg) per sample; or CD11b-Alexa-488, Clone M1/70, Cat. #101217, BioLegend). For alpha smooth muscle actin (fibrosis) analysis, additional cell aliquots were also fixed in 1% paraformaldehyde and permeabilized with 0.1% triton X-100 before being stained with Cy3-conjugated anti-mouse αSM actin antibody (1:100) (Sigma Aldrich, St. Louis, Mo.). Two ml of eBioscience Flow Cytometry Staining Buffer (cat. #00-4222, eBioscience) was then added, and the samples were centrifuged at 400-500 g for 5 min at 4° C. Supernatants were removed by aspiration, and this wash step was repeated two more times with staining buffer. Following the third wash, each sample was resuspended in 500 μl of Flow Cytometry Staining Buffer and run through a 40 μm filter (Cat. #22363547, Fisher Scientific) for eventual FACS analysis using a BD FACSCalibur (cat. #342975), BD Biosciences, San Jose, Calif., USA). For proper background and laser intensity settings, unstained, single antibody, and IgG (labeled with either Alexa-488 or Alexa-647, BioLegend) controls were also run. For primate cell staining, anti-human CD68 Alexa Fluor-647-conjugated antibody (Clone KP1, Cat. #sc-20060, Santa Cruz, Dallas, Tex.) was used in conjunction with the above BioLegend (anti-mouse/human) CD11b-AF488 antibody."}, "C57BL/6 mice [2]": {"system": "C57BL/6 mice", "experiment": "Crystalline drug-loaded alginate capsules, long-term IP/SC implantation, prevention of fibrosis", "format": "in vivo", "details": "crystalline form in alginate capsules, retrieved after 1, 3 and 6 months from IP space", "source_text": "Lead compounds identified by screening the amorphous formulations (e.g., compounds of Formulae I-X, particularly LY215799, Dx, Curcumin, GW2580, QNZ and Ki20227) were studied for long-term release and prevention of fibrosis following encapsulation in crystalline form and implantation into the intraperitoneal (IP) space of C57BL/6 mice for long term testing. […] Drug extraction analysis by HPLC also determined that notable percentages (e.g., more than 50%) of the loaded drug remained within the retrieved capsules (FIG. 22D), particularly in the subcutaneous implanted samples. […] In contrast, capsules retrieved from the IP space 6 months post-implantation were identified with only 2-40% of the loaded drug remaining within the retrieved capsules.\nAll animal protocols were approved by the MIT Committee on Animal Care, and all surgical procedures and post-operative care was supervised by MIT Division of Comparative Medicine veterinary staff. Immune-competent male non-diabetic or STZ-induced diabetic C57BL/6 mice (Jackson Laboratory, Bar Harbor, Me.) were anesthetized with 3% isoflurane in oxygen and had their abdomens shaved and sterilized using betadine and isopropanol. Preoperatively, all mice also received a 0.05 mg/kg dose of buprenorphine subcutaneously as a pre-surgical analgesic, along with 0.3 mL of 0.9% saline subcutaneously to prevent dehydration. A […] incision was made along the midline of the abdomen and the peritoneal lining was exposed using blunt dissection. The peritoneal wall was then grasped with forceps and a 0.5-1 mm incision was made along the linea alba. A desired volume of spheres (all materials without islets, as well as SLG20 spheres encapsulating rat islets) were then loaded into a sterile pipette and implanted into the peritoneal cavity through the incision. The incision was then closed using 5-0 taper-tipped polydioxanone (PDS II) absorbable sutures. The skin was then closed over the incision using a wound clip and tissue glue.\nAt desired time points post-implantation or transplantation (with encapsulated islets), as specified in figures, mice were euthanized by CO2 administration, followed by cervical dislocation. In certain instances, 5 ml of ice cold PBS was first injected in order perform an intraperitoneal lavage to rinse out and collect free-floating intraperitoneal immune cells. An incision was then made using the forceps and scissors along the abdomen skin and peritoneal wall, and intraperitoneal lavage volumes were pipetted out into fresh 15 ml falcon tubes (each prepared with 5 ml of RPMI cell culture media). Next, a wash bottle tip was inserted into the abdominal cavity. KREBS buffer was then used to wash out all material spheres from the abdomen and into petri dishes for collection. After ensuring all the spheres were washed out or manually retrieved (if fibrosed directly to intraperitoneal tissues), they were transferred into 50 mL conical tubes for downstream processing and imaging. After intraperitoneal lavage and sphere retrieval, remaining fibrosed intraperitoneal tissues were also excised for downstream FACS and expression analyses.\nFor phase contrast imaging, retrieved materials were gently washed using Krebs buffer and transferred into 35 mm petri dishes for phase contrast microscopy using an Evos X1 microscope (Advanced Microscopy Group).\nImmunofluorescence imaging was used to determine immune populations attached to spheres. […]"}}, "data": [{"smiles": "COc1ccc(COc2ccc(Cc3cnc(N)nc3N)cc2OC)cc1", "note": "[GW2580, 5-[[3-Methoxy-4-[(4-methoxyphenyl)methoxy]phenyl]methyl]-2,4-pyrimidinediamine]", "values": [{"measurement": "foreign body response (plaque on retrieved PDMS discs)", "setting": "C57BL/6 mice [1]; 1, 5 and 10% w/w crystals, 2 and 4 weeks, 3 months", "result": "reduced in a dose-dependent fashion"}, {"measurement": "remaining drug levels (% loading, HPLC), SC versus IP", "setting": "C57BL/6 mice [1]; 2 weeks, 4 weeks, 3 months", "result": "release was slower in the SC space"}, {"measurement": "responding macrophages dissociated from discs (FACS)", "setting": "C57BL/6 mice [1]; all time points, IP and SC", "result": "significantly reduced cell numbers"}, {"measurement": "immune cell infiltration and fibrosis (H&E and Masson's Trichrome)", "setting": "C57BL/6 mice [1]; excised SC and IP tissues, versus blank discs", "result": "significantly reduced immune cell infiltration and fibrosis"}, {"measurement": "drug retention, PDMS versus alginate", "setting": "C57BL/6 mice [1]; same incubation times", "result": "drug retention was much higher in polymer PDMS"}, {"measurement": "fibrosis by phase contrast imaging and confocal microscopy", "setting": "C57BL/6 mice [2]", "result": "fibrosis free"}]}]}
